Measurements: patent US20250235437A1, “PROTEOLYSIS TARGETING CHIMERA (PROTAC) MOLECULE FOR DEGRADATION OF ENL AND CANCER THERAPY” (Baylor College of Medicine, priority 2022, published 2025)

What was measured:
ENL [1] = target: T1, ENL (Homo sapiens, UniProt Q03111); assay: ChIP-qPCR, ENL at Myc and HoxA9 gene promoters; format: cell-based; details: 500 nM
T1 construct: tested whether the compounds degrade ENL and AF9 in MV4;11 leukemia cells; endogenous in cells; host or cells: MV4;11; Molm-13
T1 sequence (Q03111 1-559): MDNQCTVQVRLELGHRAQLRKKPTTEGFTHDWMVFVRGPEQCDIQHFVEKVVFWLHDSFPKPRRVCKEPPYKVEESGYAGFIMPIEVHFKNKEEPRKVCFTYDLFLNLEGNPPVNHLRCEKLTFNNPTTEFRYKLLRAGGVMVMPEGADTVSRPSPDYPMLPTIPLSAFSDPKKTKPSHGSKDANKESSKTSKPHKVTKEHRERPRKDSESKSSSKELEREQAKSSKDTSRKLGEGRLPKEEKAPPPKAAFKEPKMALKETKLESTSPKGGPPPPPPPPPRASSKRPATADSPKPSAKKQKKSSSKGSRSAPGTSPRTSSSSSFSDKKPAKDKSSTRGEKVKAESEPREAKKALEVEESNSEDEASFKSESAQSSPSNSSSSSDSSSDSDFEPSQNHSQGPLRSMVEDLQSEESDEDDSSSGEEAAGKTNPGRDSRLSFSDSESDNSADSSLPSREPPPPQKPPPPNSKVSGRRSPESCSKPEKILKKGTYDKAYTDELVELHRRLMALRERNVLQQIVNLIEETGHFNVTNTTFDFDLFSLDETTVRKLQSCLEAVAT
Description: Chromatin immunoprecipitation (ChIP) followed by qPCR was used to further probe the activity of compound 1 in the gene promoters of Myc and HoxA9, two characteristic MLL1 target genes.

RPMI-8226 cells = assay: Gene profiling and GSEA in RPMI-8226 cells; format: cell-based; details: 500 nM for 4 days
Molm-13 cells [2] = assay: Gene profiling and GSEA in Molm-13 cells; format: cell-based; details: 500 nM
Description: Gene profiling was performed to find how compound 1 affects global gene transcriptome. mRNAs from the control and compound 1 (500 nM) treated Molm-13 cells were extracted, purified and sequenced. Bioinformatic analysis was performed to find differentially expressed genes between the treated and control cells, which were used for gene set enrichment analysis (GSEA). […] These clearly indicate that treatment with compound 1 recapitulated ENL knockout with similar patterns of gene expression changes.

HoxA9, Meis1 and Myc = assay: Expression of HoxA9, Meis1 and Myc in Molm-13 cells; format: cell-based; details: 4 days
Description: Previous studies show ENL is required for expression of MLL1-target genes in MLL1-r leukemia. How compound 1-mediated ENL degradation changes expression of HoxA9, Meis1 and Myc, three characteristic genes in MLL1-r leukemia, was examined. Molm-13 cells were treated with compound 1 for 4 days, after which the RNAs were extracted and analyzed.

Hela cell = assay: Anti-proliferative activity, Hela cells; format: cell-based; details: Hela (cervical) cells; read-out: EC50, proliferation
Molm-13 cells [3] = assay: Apoptosis of Molm-13 cells; format: cell-based
Description: Treatment of Molm-13 cells with compound 1 for 7 days at 1 and 3 μM caused significant apoptosis of 22.7% and 67.6%, respectively (FIG. 6C).

Molm-13 cells [4] = details: Molm13 cells, footnote b: reported in Li, et al. J Hematol Oncol, 2022; read-out: Anti-proliferative activity EC50, Molm13; cited from earlier work
H3K79 methylation = assay: Nuclear H3K79 methylation in MV4;11 cells, 4 days; format: cell-based
Description: (§1) Applicant further investigated how compound 1 affects ENL, AF9 and other proteins of SEC in the cytoplasmic and nuclear compartments, the latter of which are more relevant to the functions of these transcription cofactors. […] Upon treatment of MV4;11 cells with these compounds for 4 days, cytoplasmic and nuclear proteins were separated and subjected to SDS-PAGE/Western blot.

Molm-13 leukemia = assay: Subcutaneous Molm-13 leukemia xenograft in NOD-SCID mice; format: in vivo
Description: In vivo antitumor activity of compound 1 was evaluated in a commonly used mouse model of Molm-13 leukemia. First, in vivo toxicity was assessed in C57BL/6 mice. […] Next, 10^6 Molm-13 cells were injected subcutaneously into NOD-SCID mice, which developed palpable tumors in ˜1 week and grew rapidly.

MV4;11 cells = details: footnote b: reported in Li, et al. J Hematol Oncol, 2022, read-out: Anti-proliferative activity EC50, MV4; cited from earlier work
[5] = tested on: AF9, AFF4, cyclin-T1, DOT1L; assay: Levels of other SEC-related proteins in MV4;11 cells, 4 days (Western blot); format: cell-based; details: nucleus
Description: as §1

ENL [6] = target: T1, ENL; assay: ENL degradation in MV4;11 cells (Western blot); format: cell-based
Description: Next, Applicant tested whether the compounds degrade ENL and AF9 in MV4;11 leukemia cells with the .MLL1-AF4 oncogene. Upon compound treatment for 24 h, the cells were washed, lysed, and the lysates subjected to SDS-PAGE (sodium dodecyl sulphate-polyacrylamide gel electrophoresis) followed by detection with Western blot.

## C[C@H]1CCCN1Cc1nc2cc(NC(=O)c3ccc4c(cnn4CCCCCCCCNc4cccc5c4C(=O)N(C4CCC(=O)NC4=O)C5=O)c3)ccc2[nH]1 (stereo partly drawn) [Compound 1]
ENL [1]
  ENL levels at Myc and HoxA9 gene promoters: significantly reduced
RPMI-8226 cells
  expression of MYC target gene set (GSEA): significantly down-regulated
Molm-13 cells [2]; 4 days, GSEA panel 1
  normalized enrichment score (NES), gene set upregulated upon ENL knockout: 7.46
Molm-13 cells [2]; 4 days, GSEA panel 2
  normalized enrichment score (NES), gene set downregulated upon ENL knockout: −4.26
Molm-13 cells [2]; GSEA panel 7
  transcription of Myc-target genes: significantly downregulated
Molm-13 cells [2]; GSEA panels 3 and 4
  gene sets regulated by knockdown of MLL-AF9 or -ENL: significantly up- and down-regulated
Molm-13 cells [2]; GSEA panels 5 and 6
  expression of HoxA9-regulated genes: reversed expression patterns
HoxA9, Meis1 and Myc
  expression of HoxA9, Meis1 and Myc: significantly inhibit expression of these three genes in a generally dose-dependent manner
Hela cell
  EC50: > 50 µM
Molm-13 cells [3]; 0.5 μM or shorter incubation (e.g. 4 days)
  apoptosis: < 5%
Molm-13 cells [3]; 7 days, 1 μM
  apoptosis: 22.7%
Molm-13 cells [3]; 7 days, 3 μM
  apoptosis: 67.6%
Molm-13 cells [4]
  EC50: 0.32 µM
H3K79 methylation
  nuclear levels of H3K79 methylation: not consistently affected
Molm-13 leukemia; 30 mg/kg/day for Day 3-15
  body weight: did not cause significant weight losses
  tumor growth: significantly inhibited tumor growth
Molm-13 leukemia; 30 mg/kg/day for Day 3-15, p<0.01
  animal survival: prolonged animal survivals
MV4;11 cells
  EC50: 0.57 µM
[5]
  levels of AF9, AFF4, cyclin-T1 and DOT1L: not significantly decreased
ENL [6]; 24 h treatment
  Dmax (maximal degradation), ENL: ~95%
  concentration at which ENL is almost depleted: ~500 nM
ENL [6]; 24 h treatment, read-out: DC50 (concentration at which a protein is reduced by 50%), ENL
  DC50: 0.037 µM
ENL [6]; FIG. 3D
  concentration of maximal ENL-degrading activity: ~500 nM
  concentrations at which ENL level started to recover (hook effect): 1 to 10 µM
